Measurements as given in ChEMBL document CHEMBL3045274, “Xyloccensins QV, six new 8,9,30-phragmalin ortho ester antifeedants from the Chinese mangrove Xylocarpus granatum” (Tetrahedron, 2005).
The source made the active and inactive calls. The rule behind the calls is not given here.

System: Mythimna separata
Experiment: Antifeedant activity against third instar larvae of Mythimna separata (Oriental armyworm) in compound treated leaf disk at 500 ppm
Assay type: functional, organism-based

Structure (SMILES) | Activity
COC(=O)[C@@H](O)[C@@H]1[C@@]2(C)C[C@@]3(O)[C@@](O)([C@@H]2OC(C)=O)[C@@H]2O[C@]4(C)O[C@]5(C[C@@H](OC(C)=O)[C@@]6(C)C(=CC(=O)O[C@@H]6c6ccoc6)[C@]25O4)[C@@]13C | inactive
COC(=O)C[C@@H]1[C@@]2(C)C[C@@]3(O)[C@@](OC(C)=O)([C@@H]2OC(C)=O)[C@@H]2O[C@]4(C)O[C@]5(C[C@@H](OC(C)=O)[C@@]6(C)C(=CC(=O)O[C@@H]6c6ccoc6)[C@]25O4)[C@@]13C | inactive
COC(=O)[C@H](OC(C)=O)[C@H]1[C@]2(C)C[C@]3(O)[C@H]([C@H]2OC(C)=O)[C@H]2O[C@@]4(C)O[C@@]5(CC[C@@]6(C)[C@H](c7ccoc7)OC(=O)C[C@@]6(O)[C@@]25O4)[C@]13C | inactive
COC(=O)C[C@@H]1[C@@]2(C)C[C@@]3(O)[C@@](O)([C@@H]2OC(C)=O)[C@@H]2O[C@]4(C)O[C@]5(C[C@@H](OC(C)=O)[C@@]6(C)C(=CC(=O)O[C@@H]6c6ccoc6)[C@]25O4)[C@@]13C | inactive
COC(=O)[C@@H](O)[C@@H]1[C@@]2(C)C[C@@]3(O)[C@@](OC(C)=O)([C@@H]2OC(C)=O)[C@@H]2O[C@]4(C)O[C@]5(C[C@@H](OC(C)=O)[C@@]6(C)C(=CC(=O)O[C@@H]6c6ccoc6)[C@]25O4)[C@@]13C | inactive
COC(=O)[C@H](OC(C)=O)[C@H]1[C@]2(C)C[C@]3(O)[C@@](OC(C)=O)([C@H]4O[C@@]5(C)O[C@@]6(CC[C@@]7(C)[C@H](c8ccoc8)OC(=O)C[C@@]7(O)[C@@]46O5)[C@]13C)[C@H]2OC(C)=O | Active
COC(=O)[C@@H](O)[C@@H]1[C@@]2(C)C[C@@]3(O)[C@H]([C@H]4O[C@]5(C)O[C@]6(C[C@@H](OC(C)=O)[C@@]7(C)C(=CC(=O)O[C@@H]7c7ccoc7)[C@]46O5)[C@@]13C)[C@@H]2OC(C)=O | inactive
COC(=O)[C@@H](OC(C)=O)[C@@H]1[C@@]2(C)C[C@@]3(O)[C@@](O)([C@@H]2OC(C)=O)[C@@H]2O[C@]4(C)O[C@]5(C[C@@H](OC(C)=O)[C@@]6(C)C(=CC(=O)O[C@@H]6c6ccoc6)[C@]25O4)[C@@]13C | Active
